According to patent US11890279B2, “Quinolines that modulate SERCA and their use for treating disease” (Neurodon Corporation, priority 2020, dated 2024):
Read-outs that look alike come from different tables or passages of the source. Each block holds one compound with its values, some of them ahead of it.

How the values were obtained:
[1] = system: HEK293 cells; assay: Protection against thapsigargin (TG)-induced cell death, HEK293; format: cell-based, human; details: compound 20 μM; thapsigargin 15 μM; 24 hrs
Description: (§1) Protection against Thapsigargin (TG)-induced Cell-death. Human embryonic kidney (HEK293) cells were grown in Dulbecco's Modified Eagle's Medium (DMEM) with 10% FBS and 1% antibiotic antimycotic solution (ABAM). Mouse neuroblastoma (N2a) cells were grown in 1:1 DMEM:OPTI-MEM® with 5% FBS and 1% ABAM. All cells were grown in 10% CO2 in a humidified environment of the incubator. Cells grown in 96-well plates were exposed to a test compound (20 μM) for 2 hrs before addition of thapsigargin (15 μM for HEK293 cells and 1 μM for N2a cells) to induce ER stress. After incubation in cell-culture incubator for 24 hrs, ALAMARBLUE® regent (10% v/v) was added to the wells. Fluorescence reading was taken 2 hrs after the addition of the ALAMARBLUE® regent. Cell-viability was calculated as a percentage of relative fluorescence unit (RFU) compared to control.
(§2) The results are summarized in Table 2, where A represents a value greater than 50% cell rescue, B represents a value between 10% to 50% cell rescue, C represents a value between 1% to 10% cell rescue, and D represents a value no greater than 1% cell rescue.

[2] = system: N2a cells; assay: Protection against thapsigargin (TG)-induced cell death, N2a; format: cell-based, mouse; details: compound 20 μM; thapsigargin 1 μM; 24 hrs
Description: as §1, §2

[3] = system: N2a cells; assay: Protection against hydrogen peroxide-induced cell death, N2a; format: cell-based, mouse; details: compound 40 μM; hydrogen peroxide 200 μM
Description: Protection against Hydrogen Peroxide-induced Cell-death. N2a cells grown in 96-well plates were exposed to a test compound (40 μM) for 2 hrs before addition of hydrogen peroxide (200 μM). After 40 min of incubation with hydrogen peroxide, ALAMARBLUE® regent (10% v/v) was added to the wells. Fluorescence reading was taken 2 hrs after the addition of the ALAMARBLUE® regent. Cell-viability was calculated as a percentage of relative fluorescence unit (RFU) compared to control.
as §2

[4] = system: SERCA (SR vesicles); assay: Activation of SERCA, increase in Vmax; format: biochemical
Description: Test compounds were characterized over a range of concentrations using an NADH-linked, enzyme-coupled ATPase assay. Each well contained 2 mg or 7 mg of SR vesicles (optimized for skeletal or cardiac SR, respectively), 50 mM MOPS (pH 7.0), 100 mM KCl, 5 mM MgCl2, 1 mM EGTA, 0.2 mM NADH, 1 mM phosphoenol pyruvate, 5 IU pyruvate kinase, 5 IU lactate dehydrogenase, and 3.5 mg/mL A23187 (a calcium ionophore), and CaCl2 was added to set free [Ca2+] to the specific values. The assay was started upon addition of ATP at a final concentration of 5 mM, and read in a SpectraMax Plus microplate spectrophotometer and the ATPase activities were fitted using the Hill function.

[5] = Pharmacokinetics in Sprague Dawley rats; format: in vivo, rat; details: rat; for AUC(0-t): read-out: AUC0-t; for MRT inf: read-out: MRT0-∞; for F: PO 10 mg/kg vs IV 2 mg/kg
Description: Blood was drawn at 5 min, 15 min, 30 min, 1 hr, 2 hrs, 4 hrs, 6 hrs, and 8 hrs into EDTA containing tubes and plasma was harvested by centrifugation. Plasma (25 μL) was treated with acetonitrile (125 μL) containing an internal standard. The sample was then centrifuged for 5 min at 4,000 rpm in a tabletop centrifuge and the filtrate was collected. The filtrate was injected onto a Thermo Betasil C18 HPLC column 5 (50×2.1 mm). Mobile Phase A was water with 0.1% formic acid. Mobile Phase B was acetonitrile with 0.1% formic acid. […] An API Sciex 4000 equipped with a turbo ion spray source was used for all analytical measurements. A positive ion MRM method was developed. Peak areas of the product ion were measured against the peak areas of the internal standard. Data was fit using WinNonLin (Pharsight Corporation, Mountain View, CA).

[6] = system: human islet microtissues; assay: Protection of human pancreatic islets under cytokine stress; format: cell-based; details: 168 h, compound 5 μM, cytokine cocktail IL1-β, IFN-γ, TNF-α, 7 days, read-out: increase in viability over baseline (total ATP content)
Description: Human pancreatic islet microtissues treated with cytokines were used to model the conditions of Type 1 Diabetes in vitro. This study tested the effects of compounds on […] viability in human islets under cytokine stress. The model consisted of human islet microtissues from an HLA-A2 positive donor grown and separated in a 96-well plate (1 microtissue per well). The microtissues were treated for 7 days with a cocktail of cytokines (IL1-β 5 ng/mL, IFN-γ 25 ng/mL, TNF-α 25 ng/mL) and compound (5 μM) or vehicle. There were 6 microtissues treated per compound or vehicle. At day 7, the total ATP content was measured using CellTiter-Glo (Promega).

[7] = system: CSM14.1 cells; assay: ER stress cell survival assay (thapsigargin); format: cell-based; details: for Cell Survival: compound 2 μM, about 15 μM thapsigargin, CSM14.1 cells;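 for cell survival: survival read as CellTiter-Glo luminescence after overnight incubation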
Description: ER Stress Cell Survival Assay
CSM14.1 cells were maintained in Complete Medium at 32° C.; wherein the Complete Medium contained Dulbecco's modified eagle medium (DMEM) with 10% fetal bovine serum (FSB), 1% L-glutamine, 100 IU/mL penicillin, and 100 μg/mL streptomycin. The cells were recovered from cultures by trypsinization and then seeded in 384 well plates (Greiner #781098) at a concentration of 1,000 cells/well in 20 μL of DMEM Assay Medium, wherein the DMEM Assay Medium contained 2% FBS, 100 IU/mL penicillin, and 100 μg/mL streptomycin. Seeding was performed using a MultiDrop Combi reagent broadcaster. The plates were incubated overnight at 32° C.
A test compound was prepared by 2-fold serial dilution in 100% DMSO using a BIOMEK® 2000 liquid handler (Beckman Coulter). A dose-response curve containing 10 concentrations of the test compound was obtained. Using a BIOMEK® FX liquid handler (Beckman Coulter), 2.5 μL of the test compound was transferred from the 100% DMSO serial dilution plate to an intermediate plate containing 47.5 μL of DMEM Assay Medium containing 2% FBS, 100 IU/mL penicillin, and 100 μg/mL streptomycin and mixed. To reduce or eliminate the interference from the compound's precipitation, 6 μL of the diluted compound was immediately transferred to the assay plate to achieve a high compound concentration of 100 μM in 99% DMEM Assay Medium and 1% DMSO. After the assay plates were incubated for 2 hrs, 4 μL of 112.5 μM thapsigargin (TG) (DMSO stock diluted into Assay TC Medium) was dispensed into each testing well with a MultiDrop Combi reagent broadcaster for a final concentration of about 15 μM TG. The tissue culture media (4 μL) containing vehicle only was transferred manually to each control cell using a 16 channel electronic pipette. […] High luminescence indicates cell survival.
Alternatively, a test compound was tested at a single compound concentration (e.g., 2 μM) to determine the effect of the compound on cell survival in comparison with vehicle.

[8] = Sprague Dawley, in vivo, IV 2 mg/kg
[9] = Sprague Dawley, in vivo, PO 10 mg/kg

Structure (SMILES): COc1ccc(C(=O)Nc2cccc3ccc(C)nc23)cc1 [Compound A8, 4-Methoxy-N-(2-methylquinolin-8-yl)benzamide]
HEK293 Cells (TG-induced) cell rescue [1]: A (A represents a value greater than 50% cell rescue)
N2a Cells (TG-induced) cell rescue [2]: B (B represents a value between 10% to 50% cell rescue)
N2a Cells (H2O2-induced) cell rescue [3]: B (B represents a value between 10% to 50% cell rescue)
Increase in Vmax at 10 μM [4]: C′ (C′ represents an increase no greater than 20%)

AUC(0-inf) [5, 8]: 0.381 ± 0.066 µg·h/mL
Cmax [5, 8]: 4.42 ± 0.64 µM
Tmax [5, 8]: 1.2 min
half-life [5, 8]: 54 min
AUC(0-t) [5, 8]: 0.38 ± 0.066 µg·h/mL
MRT inf [5, 8]: 35.4 min
Vd ([5]; Sprague Dawley, in vivo, IV 2 mg/kg, read-out: Vz): 7.01 L/kg
AUC(0-inf) [5, 9]: 0.587 ± 0.12 µg·h/mL
Cmax [5, 9]: 1.69 ± 0.74 µM
Tmax [5, 9]: 15 min
AUC(0-t) [5, 9]: 0.583 ± 0.119 µg·h/mL
MRT inf [5, 9]: 67.8 min
F [5]: 31%
Structure (SMILES): Cc1ccc(C(=O)Nc2cccc3ccc(C)nc23)c(Cl)c1 [Compound A17, 2-Chloro-4-methyl-N-(2-methylquinolin-8-yl)benzamide]
viability at 5 µM [6]: 10 to 20%
Increase in Vmax at 10 μM [4]: A′ (A′ represents an increase greater than 50%)
EC50 ([7]; dose-response): 20 to 100 µM

AUC(0-inf) [5, 8]: 0.309 ± 0.017 µg·h/mL
Cmax [5, 8]: 3.85 ± 0.46 µM
Tmax [5, 8]: 1.2 min
clearance [5, 8]: 0.01 L/h/kg
half-life [5, 8]: 27 min
AUC(0-t) [5, 8]: 0.299 ± 0.017 µg·h/mL
MRT inf [5, 8]: 27.6 min
AUC(0-inf) [5, 9]: 0.385 ± 0.099 µg·h/mL
Cmax [5, 9]: 1.25 ± 0.4 µM
Tmax [5, 9]: 19.8 min
half-life [5, 9]: 26.4 min
AUC(0-t) [5, 9]: 0.375 ± 0.105 µg·h/mL
MRT inf [5, 9]: 45 min
F [5]: 25%
Structure (SMILES): COc1c(C)cccc1C(=O)Nc1cccc2ccc(C)nc12 [Compound A19, 2-Methoxy-3-methyl-N-(2-methylquinolin-8-yl)benzamide]
viability at 5 µM [6]: 20 to 50%
Increase in Vmax at 10 μM [4]: A′ (A′ represents an increase greater than 50%)

Structure (SMILES): N#Cc1cccc(C(=O)Nc2cccc3cccnc23)c1 [Compound B3, 3-Cyano-N-(quinolin-8-yl)benzamide]
HEK293 Cells (TG-induced) cell rescue [1]: A (A represents a value greater than 50% cell rescue)
N2a Cells (TG-induced) cell rescue [2]: B (B represents a value between 10% to 50% cell rescue)
N2a Cells (H2O2-induced) cell rescue [3]: B (B represents a value between 10% to 50% cell rescue)
Increase in Vmax at 10 μM [4]: C′ (C′ represents an increase no greater than 20%)

Structure (SMILES): Cc1ccc2cccc(NC(=O)c3ccc(C#N)cc3)c2n1 [Compound B4, 4-Cyano-N-(2-methylquinolin-8-yl)benzamide]
HEK293 Cells (TG-induced) cell rescue [1]: A (A represents a value greater than 50% cell rescue)
N2a Cells (TG-induced) cell rescue [2]: B (B represents a value between 10% to 50% cell rescue)
N2a Cells (H2O2-induced) cell rescue [3]: B (B represents a value between 10% to 50% cell rescue)

Structure (SMILES): Cc1ccc2cccc(NC(=O)c3ccccc3C(F)(F)F)c2n1 [Compound C5, 2-Trifluoromethyl-N-(2-methylquinolin-8-yl)benzamide]
HEK293 Cells (TG-induced) cell rescue [1]: A (A represents a value greater than 50% cell rescue)
N2a Cells (TG-induced) cell rescue [2]: A (A represents a value greater than 50% cell rescue)
N2a Cells (H2O2-induced) cell rescue [3]: B (B represents a value between 10% to 50% cell rescue)
Increase in Vmax at 10 μM [4]: B′ (B′ represents an increase between 20 to 50%)
Cell Survival [7]: B (B represents a value between 10% and 50%)

Structure (SMILES): Cc1ccc2cccc(NC(=O)c3ccc(C(F)(F)F)cc3)c2n1 [Compound C10, 4-Trifluoromethyl-N-(2-methylquinolin-8-yl)benzamide]
HEK293 Cells (TG-induced) cell rescue [1]: A (A represents a value greater than 50% cell rescue)
N2a Cells (TG-induced) cell rescue [2]: B (B represents a value between 10% to 50% cell rescue)
N2a Cells (H2O2-induced) cell rescue [3]: B (B represents a value between 10% to 50% cell rescue)
Cell Survival [7]: D (D represents a value no greater than 1%)
